Experimental data: ChEMBL document CHEMBL1201862, “PubChem BioAssay data set” (2004)
Calls of active or inactive are those of the source.

How the values were obtained:
BJ [1] = assay: cytotoxicity toward BJ-TERT fibroblasts, dose response, cell-based, RAS-independent, luminescence (AID 1933); format: functional; conditions: Homo sapiens
BJ [2] = assay: cells; format: functional, cell-based; conditions: Homo sapiens
BJ [3] = assay: cytotoxicity toward BJ-TERT-LT-ST fibroblasts, dose response, cell-based, RAS-independent, luminescence (AID 1935); format: functional; conditions: Homo sapiens;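 also: BJ fibroblasts immortalized with TERT plus LT and ST oncogenes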
[4] = cytotoxicity toward DRD oncogenic fibroblasts, dose response, cell-based, non-viral oncogenic, luminescence (AID 1934); format: functional; conditions: Homo sapiens
[5] = target: T1, Microphthalmia-associated transcription factor (Homo sapiens, UniProt O75030); assay: TRPM1 promoter luciferase signal decrease, dose response, MITF inhibitor project, cell-based, SK-MEL-5, cherry-picked, set 3 (AID 493073); format: functional
T1 sequence (O75030 whole entry): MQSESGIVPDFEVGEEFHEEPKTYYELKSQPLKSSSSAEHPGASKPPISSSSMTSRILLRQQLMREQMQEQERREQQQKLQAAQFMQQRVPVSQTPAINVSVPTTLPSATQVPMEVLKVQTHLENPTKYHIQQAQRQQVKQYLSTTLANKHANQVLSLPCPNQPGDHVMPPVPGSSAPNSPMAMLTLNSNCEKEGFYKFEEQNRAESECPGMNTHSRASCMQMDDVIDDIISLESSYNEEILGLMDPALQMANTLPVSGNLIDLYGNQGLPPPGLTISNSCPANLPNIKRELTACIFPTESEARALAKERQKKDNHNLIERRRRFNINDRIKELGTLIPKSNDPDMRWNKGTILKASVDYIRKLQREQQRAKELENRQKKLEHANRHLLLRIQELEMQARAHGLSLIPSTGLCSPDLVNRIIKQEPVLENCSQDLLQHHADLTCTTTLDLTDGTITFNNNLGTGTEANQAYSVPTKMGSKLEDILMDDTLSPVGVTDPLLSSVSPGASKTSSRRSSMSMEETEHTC

[6] = target: T2, Replicative DNA helicase DnaB (Mycobacterium tuberculosis, UniProt P9WMR3); assay: DnaB intein splicing inhibitors, dose response, biochemical, cell-free fluorescence (AID 449749); format: functional
T2 sequence (P9WMR3 whole entry): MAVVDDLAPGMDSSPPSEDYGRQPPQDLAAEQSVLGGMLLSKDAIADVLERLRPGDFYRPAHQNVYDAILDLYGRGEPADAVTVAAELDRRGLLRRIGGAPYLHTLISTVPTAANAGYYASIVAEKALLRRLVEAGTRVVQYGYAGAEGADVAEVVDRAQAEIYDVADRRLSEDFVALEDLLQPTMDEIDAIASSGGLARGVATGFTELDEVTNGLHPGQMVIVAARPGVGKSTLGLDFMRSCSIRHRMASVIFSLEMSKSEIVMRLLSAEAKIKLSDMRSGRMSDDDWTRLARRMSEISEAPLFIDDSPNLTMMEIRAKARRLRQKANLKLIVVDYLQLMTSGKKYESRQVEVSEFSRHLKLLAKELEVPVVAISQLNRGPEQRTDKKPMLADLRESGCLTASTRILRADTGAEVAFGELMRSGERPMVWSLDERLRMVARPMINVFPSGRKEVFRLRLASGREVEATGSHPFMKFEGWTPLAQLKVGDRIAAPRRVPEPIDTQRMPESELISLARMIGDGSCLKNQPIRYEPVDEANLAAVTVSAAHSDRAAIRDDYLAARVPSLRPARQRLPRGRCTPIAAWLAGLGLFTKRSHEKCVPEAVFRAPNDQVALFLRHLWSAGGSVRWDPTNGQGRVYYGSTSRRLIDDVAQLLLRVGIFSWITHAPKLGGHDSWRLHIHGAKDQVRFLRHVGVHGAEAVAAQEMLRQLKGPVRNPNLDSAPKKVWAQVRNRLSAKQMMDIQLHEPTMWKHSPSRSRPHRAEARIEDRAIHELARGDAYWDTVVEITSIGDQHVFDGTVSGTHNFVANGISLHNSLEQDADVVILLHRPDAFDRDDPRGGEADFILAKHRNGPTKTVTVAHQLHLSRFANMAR

Protein RecA = target: T3, Protein RecA (Mycobacterium tuberculosis, UniProt P9WHJ3); assay: Fluorescence Cell-Free Homogeneous Dose Retest to Identify Inhibitors of RecA-Intein Splicing Activity. [Related pubchem assays (depositor defined):AID2097, AID2223, AID489010, AID492950]; format: functional
T3 sequence (P9WHJ3 whole entry): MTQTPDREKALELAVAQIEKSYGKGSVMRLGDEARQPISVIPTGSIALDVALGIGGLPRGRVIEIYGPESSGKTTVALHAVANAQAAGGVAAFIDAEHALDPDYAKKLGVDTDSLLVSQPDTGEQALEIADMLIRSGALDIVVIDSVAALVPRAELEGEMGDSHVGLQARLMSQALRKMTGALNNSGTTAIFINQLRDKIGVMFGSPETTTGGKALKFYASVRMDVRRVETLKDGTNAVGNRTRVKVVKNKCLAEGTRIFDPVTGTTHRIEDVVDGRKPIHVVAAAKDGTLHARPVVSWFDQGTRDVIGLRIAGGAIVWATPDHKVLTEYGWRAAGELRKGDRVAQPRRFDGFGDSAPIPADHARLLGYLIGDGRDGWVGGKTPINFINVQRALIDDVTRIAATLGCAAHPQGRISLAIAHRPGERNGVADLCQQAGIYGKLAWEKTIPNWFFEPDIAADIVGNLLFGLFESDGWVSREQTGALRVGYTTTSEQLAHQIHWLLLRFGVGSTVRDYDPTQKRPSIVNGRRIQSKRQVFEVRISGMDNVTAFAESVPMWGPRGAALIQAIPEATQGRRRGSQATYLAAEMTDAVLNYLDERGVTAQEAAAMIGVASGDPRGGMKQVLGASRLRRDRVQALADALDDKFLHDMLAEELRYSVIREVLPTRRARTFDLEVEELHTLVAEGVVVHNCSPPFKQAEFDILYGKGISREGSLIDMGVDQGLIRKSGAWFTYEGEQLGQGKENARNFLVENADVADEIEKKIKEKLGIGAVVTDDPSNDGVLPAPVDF

A-375 [7] = assay: MITF: Counter assay: A375 proliferation Measured in Cell-Based System Using Plate Reader - 2084-03_Inhibitor_Dose_DryPowder_Activity. [Related pubchem assays (depositor defined):AID488944]; format: functional; conditions: Homo sapiens
A-375 [8] = assay: A375 melanoma cell viability reduction, dose response, counter-screen for MITF modulator project, cherry-pick samples, set 2 (AID 540335); format: functional, cell-based; conditions: Homo sapiens
Beta-galactosidase = Beta-galactosidase (Escherichia coli, UniProt Q8VNN2); assay: PubChem AID 485352; format: functional
[9] = target: Type-1 angiotensin II receptor (Homo sapiens, UniProt P30556); assay: AT1 receptor antagonists, dose response, selectivity assay for APJ receptor antagonist project, cell-based, uHTS hits (AID 463214); format: functional;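 also: antagonist potency against angiotensin II stimulated AT1 response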
[10] = inhibitors of HIV Env-driven cell fusion, dose response, cherry-pick (AID 652057); format: functional, cell-based
[11] = ZM109 Env clade C HIV-1 fusion inhibitors, dose response, HeLa effector, CEM target cells, luciferase, cherry-pick (AID 652058); format: functional, cell-based
[12] = off-target signal loss in HeLa-CEM21 co-culture – HeLa F-luc CTL cells, cherry-picked, counter-screen for HIV-1 Env fusion inhibitor project, dose response (AID 652040); format: functional, cell-based;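 also: potency for signal decrease marking cytotoxic or nonspecific inhibition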
[13] = inhibitors of clade B AD8 Env fusion, dose response, cell-based, cherry-pick (AID 652062); format: functional;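 also: luciferase signal from cell-cell fusion driven by HIV-1 clade B AD8 Env; potency is for inhibitors of fusion seen as a drop in luminescence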
[14] = target: Beta-2 adrenergic receptor (Homo sapiens, UniProt P07550); assay: beta2AR agonists driving receptor internalization, dose response, cell-based, FAP fluorogen, flow cytometry, cherry pick 1 (AID 588763); format: functional
HEK293 [15] = assay: cells; format: functional, cell-based; conditions: Homo sapiens
[16] = target: Nuclear receptor subfamily 0 group B member 1 (Homo sapiens, UniProt P51843); assay: Luminescence-based cell-based high throughput dose response assay for inhibitors of the orphan nuclear receptor subfamily 0, group B, member 1 (DAX1; NR0B1). [Related pubchem assays (depositor defined):AID504766, AID504790]; format: functional
[17] = THP-1 cell cytotoxicity, dose response, cytotoxicity control for non-replicating M. tuberculosis project (AID 489025); format: functional
[18] = HepG2 cell cytotoxicity, dose response, cytotoxicity control for non-replicating M. tuberculosis project (AID 489018); format: functional; conditions: Mycobacterium tuberculosis
[19] = Vero E6 cell cytotoxicity, dose response, cytotoxicity control for non-replicating M. tuberculosis project, secondary assay (AID 492998); format: functional, VeroE6; conditions: Vero C1008
cells = format: functional
[20] = target: Glycogen synthase kinase-3 alpha (Homo sapiens, UniProt P49840); assay: Inhibition of Human GSK-3 alpha Activity Measured in Biochemical System Using Microfluidics - 2063-06_Inhibitor_Dose_DryPowder_Activity. [Related pubchem assays (depositor defined):AID2709]
[21] = target: Glycogen synthase kinase-3 beta (Homo sapiens, UniProt P49841); assay: Inhibition of Human GSK-3 beta Activity Measured in Biochemical System Using Microfluidics - 2063-05_Inhibitor_Dose_DryPowder_Activity. [Related pubchem assays (depositor defined):AID2709]
HEK293 [22] = assay: cytotoxicity in HEK293T NF-kB-Luc cells, SAR follow-up, cytotoxicity control for NF-kB activator project, cell-based, resazurin fluorescence (AID 493251); format: functional; conditions: Homo sapiens
Jurkat = assay: SAR Analysis of small molecule inhibitors of T-cell specific antigen receptor-induced NF-kB activation in a Jurkat cell line using a luminescence assay - Set 2. [Related pubchem assays (depositor defined):AID435003, AID435012, AID465]; format: functional, cell-based; conditions: Homo sapiens
HEK293 [23] = assay: SAR Analysis of small molecule inhibitors of T-cell specific antigen receptor-induced NF-kB activation in a HEK-293T cell line using a luminescence assay - Set 2. [Related pubchem assays (depositor defined):AID435003, AID435012, AID489026]; format: functional, cell-based; conditions: Homo sapiens

Sequence of Glycogen synthase kinase-3 alpha (P49840 whole entry): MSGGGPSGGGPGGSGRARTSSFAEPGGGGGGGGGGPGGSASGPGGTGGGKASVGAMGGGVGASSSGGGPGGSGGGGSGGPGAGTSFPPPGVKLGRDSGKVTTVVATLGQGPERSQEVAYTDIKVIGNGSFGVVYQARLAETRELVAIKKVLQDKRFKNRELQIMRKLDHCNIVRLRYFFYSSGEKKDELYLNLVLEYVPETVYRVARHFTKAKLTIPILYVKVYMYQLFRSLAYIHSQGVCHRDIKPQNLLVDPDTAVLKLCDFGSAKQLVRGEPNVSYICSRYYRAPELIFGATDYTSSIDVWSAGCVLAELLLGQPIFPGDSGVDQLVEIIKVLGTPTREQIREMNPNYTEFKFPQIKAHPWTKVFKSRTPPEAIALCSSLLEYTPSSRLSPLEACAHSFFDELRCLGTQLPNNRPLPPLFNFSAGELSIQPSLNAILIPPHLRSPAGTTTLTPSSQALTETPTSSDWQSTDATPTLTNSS
Sequence of Glycogen synthase kinase-3 beta (P49841 whole entry): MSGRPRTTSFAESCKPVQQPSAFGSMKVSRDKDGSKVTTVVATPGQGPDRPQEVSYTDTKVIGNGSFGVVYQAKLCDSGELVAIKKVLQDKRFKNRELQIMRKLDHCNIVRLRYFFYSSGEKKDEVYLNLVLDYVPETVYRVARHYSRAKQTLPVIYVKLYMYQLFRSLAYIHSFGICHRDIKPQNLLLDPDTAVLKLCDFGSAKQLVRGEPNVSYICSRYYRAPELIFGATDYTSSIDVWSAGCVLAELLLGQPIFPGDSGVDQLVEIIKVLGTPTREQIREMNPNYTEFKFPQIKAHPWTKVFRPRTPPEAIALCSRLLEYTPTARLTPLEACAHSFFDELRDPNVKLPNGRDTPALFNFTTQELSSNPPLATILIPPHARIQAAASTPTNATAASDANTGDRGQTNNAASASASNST
Sequence of Nuclear receptor subfamily 0 group B member 1 (P51843 whole entry): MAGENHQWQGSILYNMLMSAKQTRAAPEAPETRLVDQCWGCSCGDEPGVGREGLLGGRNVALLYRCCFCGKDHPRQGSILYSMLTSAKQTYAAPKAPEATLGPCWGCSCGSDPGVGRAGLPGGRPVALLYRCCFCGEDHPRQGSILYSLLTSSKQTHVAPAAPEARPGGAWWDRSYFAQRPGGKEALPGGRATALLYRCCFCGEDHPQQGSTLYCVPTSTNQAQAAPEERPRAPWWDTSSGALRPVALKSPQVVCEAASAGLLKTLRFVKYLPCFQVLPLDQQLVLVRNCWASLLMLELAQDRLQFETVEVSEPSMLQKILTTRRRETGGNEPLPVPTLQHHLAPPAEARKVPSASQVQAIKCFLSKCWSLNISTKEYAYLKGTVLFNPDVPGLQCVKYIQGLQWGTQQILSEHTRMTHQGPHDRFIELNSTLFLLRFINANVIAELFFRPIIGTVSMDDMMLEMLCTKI
Sequence of Type-1 angiotensin II receptor (P30556 whole entry, the tested form may be a part): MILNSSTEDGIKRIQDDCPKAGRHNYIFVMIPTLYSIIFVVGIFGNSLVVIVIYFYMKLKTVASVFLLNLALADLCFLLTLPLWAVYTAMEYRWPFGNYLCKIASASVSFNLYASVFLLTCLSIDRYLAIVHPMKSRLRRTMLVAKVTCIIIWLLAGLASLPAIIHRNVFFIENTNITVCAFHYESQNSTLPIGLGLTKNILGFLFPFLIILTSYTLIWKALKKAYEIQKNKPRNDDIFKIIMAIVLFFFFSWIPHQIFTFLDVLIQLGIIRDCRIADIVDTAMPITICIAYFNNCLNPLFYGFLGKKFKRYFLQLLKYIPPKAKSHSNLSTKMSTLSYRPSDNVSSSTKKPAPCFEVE
Sequence of Beta-2 adrenergic receptor (P07550 whole entry): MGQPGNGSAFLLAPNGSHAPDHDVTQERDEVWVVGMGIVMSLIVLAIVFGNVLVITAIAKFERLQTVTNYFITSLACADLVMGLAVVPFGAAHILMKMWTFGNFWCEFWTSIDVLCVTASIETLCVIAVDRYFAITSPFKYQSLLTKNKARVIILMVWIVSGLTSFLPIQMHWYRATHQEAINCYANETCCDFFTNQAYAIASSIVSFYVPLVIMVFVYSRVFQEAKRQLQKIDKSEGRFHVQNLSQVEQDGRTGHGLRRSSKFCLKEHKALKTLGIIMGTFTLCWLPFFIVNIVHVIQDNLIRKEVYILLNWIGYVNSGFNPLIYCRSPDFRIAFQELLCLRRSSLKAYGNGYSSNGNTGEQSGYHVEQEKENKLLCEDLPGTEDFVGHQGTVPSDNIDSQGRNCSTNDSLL
Sequence of Beta-galactosidase (Q8VNN2 whole entry): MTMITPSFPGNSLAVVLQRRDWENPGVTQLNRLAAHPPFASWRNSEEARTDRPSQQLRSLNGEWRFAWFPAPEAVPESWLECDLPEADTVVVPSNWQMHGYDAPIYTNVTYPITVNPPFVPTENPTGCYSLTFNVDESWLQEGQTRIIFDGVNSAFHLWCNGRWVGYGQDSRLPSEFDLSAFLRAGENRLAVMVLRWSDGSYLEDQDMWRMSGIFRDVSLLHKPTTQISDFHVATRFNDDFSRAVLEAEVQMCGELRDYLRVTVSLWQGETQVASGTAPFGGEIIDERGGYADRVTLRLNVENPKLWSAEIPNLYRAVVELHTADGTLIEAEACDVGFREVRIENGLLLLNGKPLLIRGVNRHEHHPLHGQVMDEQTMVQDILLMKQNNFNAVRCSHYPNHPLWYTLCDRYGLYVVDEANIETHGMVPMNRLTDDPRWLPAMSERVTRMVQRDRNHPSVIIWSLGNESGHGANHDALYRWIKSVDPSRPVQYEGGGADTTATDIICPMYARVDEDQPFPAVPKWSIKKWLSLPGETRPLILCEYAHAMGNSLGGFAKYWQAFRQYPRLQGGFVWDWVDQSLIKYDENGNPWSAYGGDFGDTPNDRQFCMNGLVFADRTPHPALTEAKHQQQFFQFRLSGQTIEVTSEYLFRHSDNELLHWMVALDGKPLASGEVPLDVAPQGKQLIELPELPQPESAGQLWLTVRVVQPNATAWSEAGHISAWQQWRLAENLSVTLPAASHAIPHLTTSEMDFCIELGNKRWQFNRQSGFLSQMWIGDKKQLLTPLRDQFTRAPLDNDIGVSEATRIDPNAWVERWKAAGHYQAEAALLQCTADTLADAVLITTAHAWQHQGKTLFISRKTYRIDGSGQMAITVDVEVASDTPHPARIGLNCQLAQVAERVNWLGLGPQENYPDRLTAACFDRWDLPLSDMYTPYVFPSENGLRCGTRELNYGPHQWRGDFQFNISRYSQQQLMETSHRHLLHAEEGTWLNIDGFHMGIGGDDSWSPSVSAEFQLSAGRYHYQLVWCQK

## Cc1c(C#N)c(NC(=O)CCl)n(Cc2ccc(F)cc2)c1C
BJ [1]
  EC50: 1.88 µM (inconclusive)
BJ [2]
  EC50: > 150 µM (inconclusive)
BJ [3]
  EC50: 16.7 µM (active)
[4]
  EC50: 12.1 µM (active)
[5]
  AC50: 7.16 µM (active)
[6]
  AC50: 15.2 µM (active)
Protein RecA
  EC50: 4.23 µM (active)
A-375 [7]
  AC50: > 35 µM (active)
A-375 [8]
  AC50: > 35 µM (active)

## O=C(CNc1ccc(F)cc1)c1ccccc1
Beta-galactosidase
  EC50: > 40 µM (inactive)
[9]
  IC50: 7.06 µM (active)
[10]
  AC50: 1.54 µM (active)
[11]
  AC50: 1.17 µM (active)
[12]
  AC50: 1.57 µM (active)
[13]
  AC50: 4.61 µM (active)

## CN(CCOc1ccc(-c2ccn(S(=O)(=O)c3cccc4ccccc34)n2)cc1)c1ccccn1
[14]
  EC50: 2.53 µM (active)

## c1ccc(N2CCN(c3ccccc3)C2c2cccs2)cc1
HEK293 [15]
  IC50: > 67.5 µM (inactive)
[16]
  IC50: > 67.5 µM (inactive)

## O=C1Nc2cc(C(=O)NCCN3CCCCCC3)ccc2S/C1=C\c1ccccc1
[17]
  CC50: 6.89 µM (active)
[18]
  CC50: 12.1 µM (active)
[19]
  CC50: 12.5 µM (active)
[5]
  AC50: 9.78 µM (active)
cells
  IC50: 37.8 µM (active)
[20]
  AC50: 63.7 µM (active)
[21]
  AC50: 2.29 µM (active)

## NS(=O)(=O)c1ccc(NC(=O)c2ccc([N+](=O)[O-])o2)cc1
HEK293 [22]
  IC50: 71.3 µM (inactive)
Jurkat
  IC50: 17.4 µM (active)
HEK293 [23]
  IC50: 20.5 µM (inactive)
